From patent US7956074B2, “Aryl-isoxazolo-4-yl-oxadiazole derivatives” (Hoffman-La Roche Inc., priority 2005, dated 2011) come the findings set out here.

For this assay, the target named is T1, GABA A receptor α5β3γ2 (Homo sapiens, UniProt P18507+P31644).
T1 construct: expressed in transfected cells; host or cells: HEK293 cells, transiently transfected; membranes prepared
As to the kind of experiment: [3H]flumazenil competition binding, human GABA A α5β3γ2. Conditions: competition for [3H]flumazenil (0.5 nM) binding, HEK293 cells expressing human (transiently transfected) α5β3γ2; means of two determinations; read-out: Ki[nM] hα5. Here is the method:
Membrane Preparation and Binding Assay
The affinity of compounds at GABA A receptor subtypes was measured by competition for [3H]flumazenil (85 Ci/mmol; Roche) binding to HEK293 cells expressing rat (stably transfected) or human (transiently transfected) receptors of composition
Cell pellets were suspended in Krebs-tris buffer (4.8 mM KCl, 1.2 mM CaCl2, 1.2 mM MgCl2, 120 mM NaCl, 15 mM Tris; pH 7.5; binding assay buffer), homogenized by polytron for ca. 20 sec on ice and centrifuged for 60 min at 4° C. (50000 g; Sorvall, rotor: SM24=20000 rpm). The cell pellets were resuspended in Krebs-tris buffer and homogenized by polytron for ca. 15 sec on ice. Protein was measured (Bradford method, Bio-Rad) and aliquots of 1 mL were prepared and stored at −80° C.
Assays were incubated to equilibrium for 1 hour at 4° C. and harvested onto GF/C uni-filters (Packard) by filtration using a Packard harvester and washing with ice-cold wash buffer (50 mM Tris; pH 7.5). After drying, filter-retained radioactivity was detected by liquid scintillation counting. Ki values were calculated using Excel-Fit (Microsoft) and are the means of two determinations.

Consider `COc1cccc(-c2nnc(-c3c(-c4ccccc4)noc3C)o2)c1` [Example 3, 2-(3-Methoxy-phenyl)-5-(5-methyl-3-phenyl-isoxazol-4-yl)-[1,3,4]oxadiazole], for which the Ki worked out at 391 nM. Take `COc1cc(N2CCOCC2)ccc1-c1nnc(-c2c(-c3ccccc3)noc2-n2cccn2)o1` [Example 113, 4-{3-Methoxy-4-[5-(3-phenyl-5-pyrazol-1-yl-isoxazol-4-yl)-[1,3,4]oxadiazol-2-yl]-phenyl}-morpholine]: the Ki worked out at 7.4 nM.

With `Cc1onc(-c2ccccc2)c1-c1nnc(-c2ccc(C(F)(F)F)cc2)o1` [Example 50, 2-(5-Methyl-3-phenyl-isoxazol-4-yl)-5-(4-trifluoromethyl-phenyl)-[1,3,4]oxadiazole], the Ki worked out at 250 nM.

With `COc1cc(N(S(C)(=O)=O)S(C)(=O)=O)ccc1-c1nnc(-c2c(-c3ccccc3)noc2C)o1` [Example 21, N-{3-Methoxy-4-[5-(5-methyl-3-phenyl-isoxazol-4-yl)-[1,3,4]oxadiazol-2-yl]-phenyl}-bis-methanesulfonyl-amine], the Ki is 85 nM. Take `Cc1onc(-c2ccccc2)c1-c1nnc(-c2ccc(N3CCS(=O)(=O)CC3)cc2)o1` [Example 38, 4-{4-[5-(5-Methyl-3-phenyl-isoxazol-4-yl)-[1,3,4]oxadiazol-2-yl]-phenyl}-thiomorpholine 1,1-dioxide]: the Ki was found to be 19.7 nM. Take `COc1cc(N2CCOCC2)ccc1-c1nnc(-c2c(-c3ccccc3Cl)noc2C)o1` [Example 97, 4-(4-{5-[3-(2-Chloro-phenyl)-5-methyl-isoxazol-4-yl]-[1,3,4]oxadiazol-2-yl}-3-methoxy-phenyl)-morpholine]: the Ki is 105 nM. The same measure for `COc1cc(N2CCOCC2)ccc1-c1nnc(-c2c(-c3ccc(C(F)(F)F)cc3)noc2C)o1` [Example 103, 4-(3-Methoxy-4-{5-[5-methyl-3-(4-trifluoromethyl-phenyl)-isoxazol-4-yl]-[1,3,4]oxadiazol-2-yl}-phenyl)-morpholine]: 47.6 nM; for `COc1cc(N2CCSCC2)ccc1-c1nnc(-c2c(-c3ccccc3)noc2C)o1` [Example 26, 4-{3-Methoxy-4-[5-(5-methyl-3-phenyl-isoxazol-4-yl)-[1,3,4]oxadiazol-2-yl]-phenyl}-thiomorpholine]: 10.2 nM; for `CCC(=O)Nc1ccc(-c2nnc(-c3c(-c4ccccc4)noc3C)o2)c(OC)c1` [Example 90, N-{3-Methoxy-4-[5-(5-methyl-3-phenyl-isoxazol-4-yl)-[1,3,4]oxadiazol-2-yl]-phenyl}-propionamide]: 4.8 nM. The result for `COc1ccccc1-c1nnc(-c2c(-c3ccccc3)noc2C)o1` [Example 4, 2-(2-Methoxy-phenyl)-5-(5-methyl-3-phenyl-isoxazol-4-yl)-[1,3,4]oxadiazole] reads 16.4 nM; that for `Cc1onc(-c2ccccc2)c1-c1nnc(-c2ccc([N+](=O)[O-])cc2)o1` [Example 32, 5-(5-Methyl-3-phenyl-isoxazol-4-yl)-2-(4-nitro-phenyl)-[1,3,4]oxadiazole], 240 nM. The same measure for `COc1cc(N2CCOCC2)ccc1-c1nnc(-c2c(-c3ccccc3)noc2N(C)C)o1` [Example 106, {4-[5-(2-Methoxy-4-morpholin-4-yl-phenyl)-[1,3,4]oxadiazol-2-yl]-3-phenyl-isoxazol-5-yl}-dimethyl-amine]: 165 nM. Take `COc1ccc(OC)c(-c2nnc(-c3c(-c4ccccc4)noc3C)o2)c1` [Example 15, 2-(2,5-Dimethoxy-phenyl)-5-(5-methyl-3-phenyl-isoxazol-4-yl)-[1,3,4]oxadiazole]: the Ki came out at 14.8 nM.

In the case of `COc1ccc(-c2nnc(-c3c(-c4ccccc4)noc3C)o2)c(OC)n1` [Example 100, 2,6-Dimethoxy-3-[5-(5-methyl-3-phenyl-isoxazol-4-yl)-[1,3,4]oxadiazol-2-yl]-pyridine], the Ki turned out to be 24 nM. The same measure for “N-Cyclopropylmethyl-4-[5-(5-methyl-3-phenyl-isoxazol-4-yl)-[1,3,4]oxadiazol-2-yl]-benzamide [Example 79]”: 235 nM.

In the case of `COc1cc(C)ccc1-c1nnc(-c2c(-c3ccccc3)noc2C)o1` [Example 14, 2-(2-Methoxy-4-methyl-phenyl)-5-(5-methyl-3-phenyl-isoxazol-4-yl)-[1,3,4]oxadiazole], the inhibitory constant (Ki) was determined as 31 nM. As to `COc1cc(N2CCOCC2)ccc1-c1nnc(-c2c(-c3ccccc3)noc2C2CC2)o1` [Example 77, 4-{4-[5-(5-Cyclopropyl-3-phenyl-isoxazol-4-yl)-[1,3,4]oxadiazol-2-yl]-3-methoxy-phenyl}-morpholine], the Ki amounted to 2.1 nM.

In the case of `CCNc1onc(-c2ccccc2)c1-c1nnc(-c2ccc(N3CCOCC3)cc2OC)o1` [Example 111, Ethyl-{4-[5-(2-methoxy-4-morpholin-4-yl-phenyl)-[1,3,4]oxadiazol-2-yl]-3-phenyl-isoxazol-5-yl}-amine], the Ki came to 4.9 nM. The same measure for `COc1cc(NCCN(C)C)c(F)cc1-c1nnc(-c2c(-c3ccccc3)noc2C)o1` [Example 135, N′-{2-Fluoro-5-methoxy-4-[5-(5-methyl-3-phenyl-isoxazol-4-yl)-[1,3,4]oxadiazol-2-yl]-phenyl}-N,N-dimethyl-ethane-1,2-diamine]: 9.4 nM.

In the case of `COc1cc(F)ccc1-c1nnc(-c2c(-c3ccccc3)noc2CO)o1` [Example 92, {4-[5-(4-Fluoro-2-methoxy-phenyl)-[1,3,4]oxadiazol-2-yl]-3-phenyl-isoxazol-5-yl}-methanol], the Ki is 293 nM. Regarding `COc1ccc(-c2nnc(-c3c(-c4ccccc4)noc3C)o2)c(OC)c1` [Example 10, 2-(2,4-Dimethoxy-phenyl)-5-(5-methyl-3-phenyl-isoxazol-4-yl)-[1,3,4]oxadiazole], the Ki amounted to 31.7 nM. Turning to `Cc1onc(-c2ccccc2)c1-c1nnc(-c2ccc(-n3ccnc3C)cc2)o1` [Example 59, 2-[4-(2-Methyl-imidazol-1-yl)-phenyl]-5-(5-methyl-3-phenyl-isoxazol-4-yl)-[1,3,4]oxadiazole], the Ki turned out to be 30.7 nM. The result for `Cc1onc(-c2ccccc2)c1-c1nnc(-c2ccc(N3CCC(O)CC3)nc2)o1` [Example 140, 5′-[5-(5-Methyl-3-phenyl-isoxazol-4-yl)-[1,3,4]oxadiazol-2-yl]-3,4,5,6-tetrahydro-2H-[1,2′]bipyridinyl-4-ol] reads 23.5 nM; that for `COc1cc(N2CCN(C)CC2)ccc1-c1nnc(-c2c(-c3ccccc3)noc2C)o1` [Example 67, 1-{3-Methoxy-4-[5-(5-methyl-3-phenyl-isoxazol-4-yl)-[1,3,4]oxadiazol-2-yl]-phenyl}-4-methyl-piperazine], 15.5 nM. On to `COc1cc(N2CCOCC2)ccc1-c1nnc(-c2c(-c3ccc(F)cc3)noc2C)o1` [Example 101, 4-(4-{5-[3-(4-Fluoro-phenyl)-5-methyl-isoxazol-4-yl]-[1,3,4]oxadiazol-2-yl}-3-methoxy-phenyl)-morpholine], for which the Ki turned out to be 14.5 nM.

For `COc1cc(N2CCOCC2)ccc1-c1nnc(-c2c(-c3cccs3)noc2C)o1` [Example 110, 4-{3-Methoxy-4-[5-(5-methyl-3-thiophen-2-yl-isoxazol-4-yl)-[1,3,4]oxadiazol-2-yl]-phenyl}-morpholine], the Ki worked out at 19.5 nM. On to `COc1ccc(-c2nnc(-c3c(-c4ccccc4)noc3C)o2)cc1` [Example 5, 2-(4-Methoxy-phenyl)-5-(5-methyl-3-phenyl-isoxazol-4-yl)-[1,3,4]oxadiazole], for which the Ki amounted to 31.1 nM. The result for `Cc1onc(-c2ccccc2)c1-c1nnc(-c2ccc(N3CC[S+]([O-])CC3)cc2)o1` [Example 39, 4-{4-[5-(5-Methyl-3-phenyl-isoxazol-4-yl)-[1,3,4]oxadiazol-2-yl]-phenyl}-thiomorpholine 1-oxide] reads 16.7 nM; that for `COc1cc(N2CCSCC2)c(F)cc1-c1nnc(-c2c(-c3ccccc3)noc2C)o1` [Example 116, 4-{2-Fluoro-5-methoxy-4-[5-(5-methyl-3-phenyl-isoxazol-4-yl)-[1,3,4]oxadiazol-2-yl]-phenyl}-thiomorpholine], 4.5 nM; that for `COc1cc(N2CC[S+]([O-])CC2)ccc1-c1nnc(-c2c(-c3ccccc3)noc2C)o1` [Example 56, 4-{3-Methoxy-4-[5-(5-methyl-3-phenyl-isoxazol-4-yl)-[1,3,4]oxadiazol-2-yl]-phenyl}-thiomorpholine 1-oxide], 2.2 nM. With `COc1ccccc1-c1nnc(-c2c(-c3ccccc3)noc2C2CC2)o1` [Example 69, 2-(5-Cyclopropyl-3-phenyl-isoxazol-4-yl)-5-(2-methoxy-phenyl)-[1,3,4]oxadiazole], the Ki worked out at 8.1 nM.

With `COc1cc(NC2CCOCC2)ccc1-c1nnc(-c2c(-c3ccccc3)noc2C2CC2)o1` [Example 82, {4-[5-(5-Cyclopropyl-3-phenyl-isoxazol-4-yl)-[1,3,4]oxadiazol-2-yl]-3-methoxy-phenyl}-(tetrahydro-pyran-4-yl)-amine], the Ki came to 3.7 nM. Regarding `Cc1onc(-c2ccccc2)c1-c1nnc(-c2ccc(C(=O)NC3CC3)cc2)o1` [Example 78, N-Cyclopropyl-4-[5-(5-methyl-3-phenyl-isoxazol-4-yl)-[1,3,4]oxadiazol-2-yl]-benzamide], the Ki was 42.1 nM.
